The results in this text go back to patent publication US20080132500A1, “Antibiotic compounds” (priority 2006, published 2008).

≈ marks a conversion by molar mass, not a printed value. Read-outs that look alike come from different tables or passages of the source.

What all share (assay): Microbroth dilution MIC
Common to all, as to format: cell-based

Experiment [1] has as its system Staphylococcus Aureus CL 8260. Particulars: Staphylococcus Aureus strain CL 8260. How it is done: (§1) Cation-Adjusted Mueller Hinton Broth (BBL): Prepared according to manufacturer's instructions (22 gms dissolved in 1000 mL water; autoclaved 22 minutes). Stored refrigerated. Filter-sterilized before use using a Coming 0.45 Tm cellulose acetate filter.
(§2) The type of strains listed above can be obtained from publicly available sources. The strain of Haemophilus influenzae used in to assay the compound of this invention is a mouse pathogen used for in vivo testing at Merck. The Escherichia coli strain used in to assay the compound of this invention is a cell wall permeable strain. The Candida albicans strain is used as a control. These culture are maintained as frozen stocks at −80° C. in a) Microbank beads; b) 2× Skim Milk; or c) in 2× X Trypticase Soy Broth+15% glycerol/50% horse serum (Haemophilus and Streptococcus pneumoniae).
(§3) Selected isolates are sub-cultured onto either Chocolate Agar Plates (Haemophilus influenzae), onto Trypticase Soy+5% Sheep Blood Agar Plates (Streptococcus pneumoniae, Staphylococcus aureus, Escherichia coli, Enterococcus, Bacillus) or onto Sabouraud Dextrose Agar (Candida) and incubated at 35° C. Haemophilus and Streptococcus pneumoniae are incubated in 5% CO2; all other isolates are incubated in ambient air. Isolates are sub-cultured 2× before assay.
(§4) Colonies are selected from plates and used to prepare an inoculum equivalent to a 0.5 McFarland standard in Trypticase Soy Broth. An inoculum with a density equivalent to a 1.0 McFarland standard is prepared for Streptococcus pneumoniae. The inoculum density for all cultures is ˜10^8 CFU/mL in TSB. This TSB inoculum is diluted 1:10 in sterile saline (4 mL inoculum+36 mL saline; equivalent to ˜10^7 CFU/mL) and kept on ice until used to inoculate microtiter plates.
(§5) All wells of 96-well microtiter plates (Dynex) are filled with 100 TL media. Haemophilus test media plates are prepared to test Haemophilus influenzae; Cation-Adjusted Mueller Hinton+5% Lysed Horse Blood plates are prepared to test Streptococcus pneumoniae; Cation-Adjusted Mueller Hinton Broth plates are prepared to test Enterococcus, Staphylococcus aureus, Escherichia coli and Bacillus subtilis. RPMI 1640 is used to test Candida. The MICs against S. aureus Smith are determined in Cation-adjusted Mueller Hinton and in Cation-Adjusted Mueller Hinton+50% Human Serum, to determine if the compound is inactivated by some component in serum (indicated by an increase in the MIC). Filled plates are wrapped in plastic bags (to minimize evaporation), stored frozen and thawed before use.
(§6) The compounds are prepared on a weight basis. Compounds are prepared to 2-10 mg/mL in 100% DMSO, then diluted to 1 mg/mL in a 1:1 dilution of DMSO/233 CAMHB (final concentration=50% DMSO/50% CAMHB). Compounds are serially diluted 1:1 in 50% DMSO/50% CAMHB in BD Biosciences Deep Well Polypropylene 96 well plates (starting concentration 1-5 mg/mL).
(§7) Using a Finn Automated Multichannel Pipette, (0.5-10 μL volume) 6.4 TLs of antimicrobial working solutions are added to wells of filled microtiter plates (concentration of antimicrobial in first well=512-64 microg/mL; concentration of DMSO=3.2%). Antimicrobials are added in this manner to keep constant the amount of DMSO in each well (to keep compounds solubilized and to account for the possibility of non-specific killing by the DMSO. The last row contains a growth control of 3.2% DMSO.
(§8) Controls (Penicillin G and chloramphenicol) are run with each assay. The controls are prepared in the same manner as described for the compounds of the invention. Ertapenem is included as a control for the serum protein binding assay.
(§9) Plates are incubated at 35° C. in ambient air. An uninoculated plate is also incubated as a sterility check. Results are recorded after 22-24-hours' incubation. Plates were read to no growth.

The test system of experiment [2] is Enterococcus Faecalia CLB 21560. The method, then: as §1, §2, §3, §4, §5, §6, §7, §8, §9
The test system of experiment [3] is Staphylococcus Aureus CL 5814. The following applies: Staphylococcus Aureus strain CL 5814. How it is done:
as §1, §2, §3, §4, §5, §6, §7, §8, §9

The test system of experiment [4] is Staphylococcus Aureus MB 2865. Particulars: Staphylococcus Aureus strain MB 2865. The method, then: as §1, §2, §3, §4, §5, §6, §7, §8, §9

The term MIC denotes the lowest concentration found to suppress growth. Regarding `CO/C(C)=C1/NC(=O)[C@H]([C@@H](C)O)NC(=O)c2csc(n2)-c2cc(O)c(-c3nc(CNC(=O)CN4CCOCC4)cs3)nc2-c2csc(n2)[C@@H]2COC(=O)c3c4c5c(cccc5n3O)COC(=O)[C@@H](O[C@H]3C[C@](C)(O)[C@H](N(C)C)[C@H](C)O3)[C@@H](OC4)[C@H](NC(=O)c3csc1n3)c1nc(cs1)C(=O)N2` [Compound A], the MIC in experiment [1] stood at 0.015 µg/mL (≈ 0.0101 µM); in experiment [2] (Enterococcus) it was 0.015 µg/mL (≈ 0.0101 µM); in experiment [3], 0.0038 µg/mL (≈ 0.00256 µM); in experiment [4], 0.0075 µg/mL (≈ 0.00506 µM).

On to `CO/C(C)=C1/NC(=O)[C@H]([C@@H](C)O)NC(=O)c2csc(n2)-c2cc(O)c(-c3nc(CNCCO)cs3)nc2-c2csc(n2)[C@@H]2COC(=O)c3c4c5c(cccc5n3O)COC(=O)[C@@H](O[C@H]3C[C@](C)(O)[C@H](N(C)C)[C@H](C)O3)[C@@H](OC4)[C@H](NC(=O)c3csc1n3)c1nc(cs1)C(=O)N2` [Compound B], for which the MIC in experiment [1] came out at 0.03 µg/mL (≈ 0.0215 µM); in experiment [2] (Enterococcus Faecalia strain CLB 21560, read-out: MIC) it was 0.06 µg/mL (≈ 0.0429 µM); in experiment [3], 0.0075 µg/mL (≈ 0.00536 µM); in experiment [4] it was 0.03 µg/mL (≈ 0.0215 µM).
